Data on two compounds can be found in publication PMC11279551, “Pharmacokinetics and Enterohepatic Circulation of 2-(Quinoline-8-carboxamido)benzoic Acid (2-QBA) in Mice” (Pharmaceutics, 2024).

The conditions of data set [1]: PO 6.25~50 mg/kg; cited from earlier work.
A short description of data set [2]: Intestinal permeability in Ussing chamber. The data set is classed as in vitro ADME, mice. Conditions: mouse, pH 7.4; range over intestinal segments, n = 3; read-out: permeability of marker compounds. The protocol: The small intestines were isolated from fasted mice under isoflurane anesthesia (1–3% with oxygen gas flow) and dissected into three parts, the jejunum, upper ileum, and lower ileum. […] The intestinal permeability of 2-QBA was assessed by adding 0.5 mL of HBSS containing 20 μM of 2-QBA on the donor side and 0.5 mL of fresh HBSS on the receiver side. Then, a 100 μL aliquot was withdrawn from the receiver side every 30 min for 2 h and an equal volume of pre-warmed fresh HBSS was added to replenish the lost volume. To analyze the 2-QBA, 100 μL aliquots were mixed with 4 volumes of IS solution (1 ng/mL berberine in acetonitrile). The mixture was vigorously vortexed for 5 min and then centrifuged at 13,000× g for 5 min. The supernatant was transferred to autosampler vials. Subsequently, a 3 μL aliquot was injected into the LC-MS/MS system.

Molecules are shown by their SMILES.

Take `O=c1c(-c2ccc(O)cc2)coc2cc(O)cc(O)c12` [genistein]: the “time within which multiple peaks appeared” value in data set [1] was not above 6 h. Turning to `CC(C)NCC(O)COc1cccc2ccccc12` (centres unmarked) [propranolol, reference compound], the Papp in data set [2] fell in the range of 10 to 22.5 ×10⁻⁶ cm/s.
